Assay results from patent US20240343733A1, “COMPOUNDS FOR TARGETING DEGRADATION OF IRAK4 PROTEINS” (BIOGEN MA INC., priority 2021, published 2024).
Where two headings read alike, the source gives them in different places.

Assay: Pharmacokinetics in Male Cynomolgus Monkeys
Type: in vivo
Conditions: cynomolgus monkey, plasma; for Vd: read-out: Vdss
Experimental: Assay 5. Pharmacokinetics in Male Cynomolgus Monkeys
The pharmacokinetic (PK) profile in plasma of two compounds of the present invention was determined in male cynomolgus monkeys following single dose IV (5 mg/kg) and PO (10 mg/kg) administration. This study was performed under non-GLP conditions, and unless otherwise stated, all analytical reagents were standard laboratory reagent grade. The study was conducted in accordance with IACUC guidelines in compliance with the Animal Welfare Act, the Guide for the Care and Use of Laboratory Animals.
Male cynomolgus monkeys, non-naïve, are acceptable species to support PK studies for compounds intended for use in humans. The animals were supplied by Hainan Jingang Laboratory Animal Co. Ltd (Nayangxintan Fucheng Town, Qiongshan District, Haikou Hainan Province, P.R. China) or another qualified source. During in-life, the animals were individually housed in stainless-steel mesh cages that are in accordance with the National Research Council “Guide for the Care and Use of Laboratory Animals”. Animals were fed twice daily with approximately 120 g of certified monkey diet. These amounts were adjusted as necessary based on food consumption of the group or an individual body weight changes of the group or an individual and/or changes in the certified diet. In addition, animals received fruit daily as nutritional enrichment and reverse osmosis (RO) water was available to all animals, ad libitum. RO water was analyzed every three months and every batch of feed was analyzed before using. Feed and water analyses records were maintained in the facility records. The room(s) were controlled and monitored for relative humidity range of 40-70% (any excursion from this range for more than 3 hours was documented as a deviation) and temperature range of 18-26° C. (any excursion from this range was documented as a deviation) with 10 to 20 air changes/hour. The room was on a 12-hour light/dark cycle except when interruptions were necessitated by study activities. Normal healthy animals weighing >2 kg and age ≥2 years old were selected for studies. The monkeys were identified by a unique skin tattoo on chest.
2-[4-[[4-[1-(2,6-dioxo-3-piperidyl)-3-methyl-2-oxo-benzimidazol-5-yl]-1-piperidyl]methyl]cyclohexyl]-7-isopropoxy-N-pyrazolo[1,5-a]pyrimidin-3-yl-imidazo[1,2-a]pyridine-6-carboxamide, as described in Example 48 (“Compound 48”), and 2-((1R,4S)-4-((4-(1-(2,6-dioxopiperidin-3-yl)-3-methyl-2-oxo-2,3-dihydro-1H-benzo[d]imidazol-5-yl)piperidin-1-yl)methyl)cyclohexyl)-N-(1-((1S,2R)-2-fluorocyclopropyl)-2-oxo-1,2-dihydropyridin-3-yl)-7-isopropoxyimidazo[1,2-a]pyridine-6-carboxamide, as described in Example 169 (“Compound 169”), were each formulated by dissolving the compound in polyethylene glycol (PEG400) (10%) with stirring, followed by the slow addition of 11.11% 2-Hydroxypropyl-beta-cyclodextrin (HPβCD) (90%) in water. Vehicle dose was PEG400 (10%) and 11.11% HP-β-CD (90%) in water. Formulations and vehicle were freshly prepared on of the day of dosing and stored at room temperature until used.
All animals were weighed prior to drug administration. The animals were divided into intravenous (IV) group and per os (PO) group for each compound tested, with 3 animals in each group. The vehicle dosing group included IV and PO groups, making a total of 6 groups of 3 animals each, for 18 animals total. The IV dose was administered by intravenous bolus injection into the cephalic or saphenous vein. The vein used for the dosing was not used for blood sample collection for the first 4 hours post dose. The PO dose was administered by nasogastric tube. The nasogastric PO doses were flushed using 3 mL of vehicle (approximately 3 times volume of nasogastric tube). […] The dosing volume was 2.5 mL/kg for the IV groups and 5 mL/kg for the PO groups. The dosing concentration was 2 mg/mL for both IV and PO groups. Feeding conditions were overnight fasting for PO group but not for IV group. […]

| SMILES | AUC(0-t) (5 mg/kg IV, mean) [ng·h/mL] | C0 (5 mg/kg IV, mean) [ng/mL] | clearance (5 mg/kg IV, mean) [mL/min/kg] | half-life (5 mg/kg IV, mean) [min] | Vd (5 mg/kg IV, mean) [L/kg] | AUC(0-t) (10 mg/kg PO, mean) [ng·h/mL] | Cmax (10 mg/kg PO, mean) [ng/mL] | bioavailability (10 mg/kg PO, mean) [%] | AUC(0-t) (5 mg/kg IV, mean (Table 11)) [ng·h/mL] | C0 (5 mg/kg IV, mean (Table 11)) [ng/mL] | clearance (5 mg/kg IV, mean (Table 11)) [mL/min/kg] | half-life (5 mg/kg IV, mean (Table 11)) [min] | Vd (5 mg/kg IV, mean (Table 11)) [L/kg] | AUC(0-t) (10 mg/kg PO, mean (Table 12)) [ng·h/mL] | Cmax (10 mg/kg PO, mean (Table 12)) [ng/mL] | bioavailability (10 mg/kg PO, mean (Table 12)) [%] |
| --- | --- | --- | --- | --- | --- | --- | --- | --- | --- | --- | --- | --- | --- | --- | --- | --- |
| CC(C)Oc1cc2nc([C@H]3CC[C@H](CN4CCC(c5ccc6c(c5)n(C)c(=O)n6C5CCC(=O)NC5=O)CC4)CC3)cn2cc1C(=O)Nc1cnn2cccnc12 (stereo partly shown) [Compound 48, 2-[4-[[4-[1-(2,6-dioxo-3-piperidyl)-3-methyl-2-oxo-benzimidazol-5-yl]-1-piperidyl]methyl]cyclohexyl]-7-isopropoxy-N-pyrazolo[1,5-a]pyrimidin-3-yl-imidazo[1,2-a]pyridine-6-carboxamide] | 1740 | 5970 | 48.6 | 2650 | 70.3 | 84.3 | 18.3 | 2.42 |  |  |  |  |  |  |  |  |
| CC(C)Oc1cc2nc([C@H]3CC[C@H](CN4CCC(c5ccc6c(c5)n(C)c(=O)n6C5CCC(=O)NC5=O)CC4)CC3)cn2cc1C(=O)Nc1cccn([C@H]2C[C@H]2F)c1=O (stereo partly drawn) [Compound 169, 2-((1R,4S)-4-((4-(1-(2,6-dioxopiperidin-3-yl)-3-methyl-2-oxo-2,3-dihydro-1H-benzo[d]imidazol-5-yl)piperidin-1-yl)methyl)cyclohexyl)-N-(1-((1S,2R)-2-fluorocyclopropyl)-2-oxo-1,2-dihydropyridin-3-yl)-7-isopropoxyimidazo[1,2-a]pyridine-6-carboxamide] |  |  |  |  |  |  |  |  | 4680 | 10300 | 17 | 2660 | 32.6 | 1020 | 101 | 10.8 |
